The supplement of paper PMC4862054

Assays:
Experiment in all cases: drug sensitivity score (DSS), CellTiter-Glo (DSS (AUC-based score)); higher = stronger drug effect (viability inhibition or cytotoxicity); extreme values may be limits of the assay
Details in all cases: incubation time: 72 h
SK-BR-3 = tested on: SK-BR-3
Procedure, shortened: (§1)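 After 72 h of incubation in 384-well plates with compound at 5 concentrations (10-fold steps, 10,000-fold range set per compound), breast cancer cell lines seeded in 20 µl suspension were read first for CellTox Green fluorescence at 485/520 nm. CellTiter-Glo luminescence was measured next, after 10 min at room temperature. Normalisation on each plate used 0.1 % DMSO and a positive kill control, and the drug sensitivity score was computed from the area under the fitted dose-response curve.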

MDA-MB-231 = tested on: MDA-MB-231
Procedure, shortened: as §1

BT-549 = tested on: BT-549
Procedure, shortened: as §1

BT-474 = tested on: BT-474
Procedure, shortened: as §1

HCC1599 = tested on: HCC1599
Procedure, shortened: as §1

MCF-10A = tested on: MCF-10A
Procedure, shortened: as §1

CAL-85-1 = tested on: CAL-85-1
Procedure, shortened: as §1

DU-4475 = tested on: DU-4475
Procedure, shortened: as §1

MDA-MB-453 = tested on: MDA-MB-453
Procedure, shortened: as §1

CAL-148 = tested on: CAL-148
Procedure, shortened: as §1

HCC1937 = tested on: HCC1937
Procedure, shortened: as §1

Hs578T = tested on: Hs578T
Procedure, shortened: as §1

MFM-223 = tested on: MFM-223
Procedure, shortened: as §1

MDA-MB-468 = tested on: MDA-MB-468
Procedure, shortened: as §1

MDA-MB-436 = tested on: MDA-MB-436
Procedure, shortened: as §1

HDQ-P1 = tested on: HDQ-P1
Procedure, shortened: as §1

HCC1143 = tested on: HCC1143
Procedure, shortened: as §1

CAL-51 = tested on: CAL-51
Procedure, shortened: as §1

SMILES	drug sensitivity score (SK-BR-3)	drug sensitivity score (MDA-MB-231)	drug sensitivity score (BT-549)	drug sensitivity score (BT-474)	drug sensitivity score (HCC1599)	drug sensitivity score (MCF-10A)	drug sensitivity score (CAL-85-1)	drug sensitivity score (DU-4475)	drug sensitivity score (MDA-MB-453)	drug sensitivity score (CAL-148)	drug sensitivity score (HCC1937)	drug sensitivity score (Hs578T)	drug sensitivity score (MFM-223)	drug sensitivity score (MDA-MB-468)	drug sensitivity score (MDA-MB-436)	drug sensitivity score (HDQ-P1)	drug sensitivity score (HCC1143)	drug sensitivity score (CAL-51)
O=C(/C=C/c1cccc(S(=O)(=O)Nc2ccccc2)c1)NO [Belinostat]	18.3	14	9.61	14.9	12.1	10.8	12.6	15.9	20.4	16.1	7.92	11	13.9	14.7	10.5	8.05	11.6	18.6
Cc1[nH]c2ccccc2c1CCNCc1ccc(/C=C/C(=O)NO)cc1 [Panobinostat]	22.3	18.2	11.1	16.6	14.7	11.1	16.5	19.2	23.5	20	9.22	15.1	13.2	15.2	10.2	8.41	15.1	17.2
C=C1C[C@@H]2[C@H](CC[C@]3(C)C(=O)CC[C@@H]23)[C@@]2(C)C=CC(=O)C=C12 [Exemestane]	0	0	0	0	0	0	0	0	0	0	0	0	0	0	0	0	0	0
S=P(N1CC1)(N1CC1)N1CC1 [Thio-TEPA]	0	0	1.83	0	0	0	0	0	0	0	0	0	0	0	0	0	0	0
CNC(=O)c1ccc(N2C(=S)N(c3ccc(C#N)c(C(F)(F)F)c3)C(=O)C2(C)C)cc1F [Enzalutamide]	0	0	0	0	0	0	0	0	0.159	0	0	0	0	0	0	0	0	6.69
O=P1(N(CCCl)CCCl)NCCCO1 (centres undefined) [Cyclophosphamide]	0	0	0	0	0	0	0	0	0	0	0	0	0	0	0	0	0	0
COCC1(CO)C(=O)C2CCN1CC2 (centres undefined) [Prima-1 Met]	0	0	2.79	0	0	0	0	0	0	0	0	0	0	0	0	0	0	0
NC(=O)c1ccc(I)c([N+](=O)[O-])c1 [Iniparib]	0	0	0	0	0	0	0	0	0	0	0	0	0	3.75	3.5	0	0	0
CCn1c(-c2nonc2N)nc2cnc(Oc3cccc(NC(=O)c4ccc(OCCN5CCOCC5)cc4)c3)cc21	4.64	3.83	5.62	5.28	0	6.73	0	0.276	0	2.07	0	6.04	0	0	1.31	1.87	0	4.84
COCC[n+]1c2c(n(Cc3cnccn3)c1C)C(=O)c1ccccc1C2=O [YM155]	33	37.8	25.8	40	35.3	29.5	39.2	27.1	29.6	33	35.3	18.8	28.4	41.9	40.6	33.5	35.2	33.8
CN(C)c1nc(N(C)C)nc(N(C)C)n1 [Altretamine]	0	0	0	0	0	0	0	0	0	0	0	0	0	0	0	0	0	0
COc1cc(OC2CCN(C)CC2)ccc1Nc1ncc2c(n1)n(C1CCCC1)c(=O)n2C [AZ 3146]	4.5	0	0	2.51	1.58	2.22	2.31	0	0	0	0	0	0	2.06	0	0	0	5.98
COc1cc2ncnc(Nc3ccc(F)c(Cl)c3)c2cc1OCCCN1CCOCC1 [Gefitinib]	10.1	0	0	0	0	17.7	9.09	0	0	2.08	2.45	0	0	5.4	0	7.21	0	0
CCc1c2c(nc3ccc(OC(=O)N4CCC(N5CCCCC5)CC4)cc13)-c1cc3c(c(=O)n1C2)COC(=O)[C@]3(O)CC [Irinotecan]	4.28	0	4	1.83	1.9	1.93	0	4.98	0	7.67	0	0	0	7.12	7.54	0	0	3.68
c1ccc2c(CCNc3ccc(Nc4ccncc4)cc3)c[nH]c2c1 [Serdemetan]	6.23	3.86	6.83	4.79	3.17	0	1.35	7.09	1.37	7.11	3.14	0.96	1.34	7.12	2.94	2.35	0	15.9
O=C(Nc1ccncc1)C(=O)c1cn(Cc2ccc(Cl)cc2)c2ccccc12 [Indibulin]	12.8	3.55	12.6	4.97	7.03	0	13	1.15	6.57	0	3.81	7.7	7.28	12.2	11.9	3.33	5.89	19.4
CN(C)CCOc1ccc(/C(=C(/CCCl)c2ccccc2)c2ccccc2)cc1 [Toremifene]	0	0	0	1.35	0	1.79	0	0	0	0	1.98	0	0.949	0	0	0	0	0
CO[C@H]1C[C@@H]2CC[C@@H](C)[C@@](O)(O2)C(=O)C(=O)N2CCCC[C@H]2C(=O)O[C@H]([C@H](C)C[C@@H]2CC[C@@H](OP(C)(C)=O)[C@H](OC)C2)CC(=O)[C@H](C)/C=C(\C)[C@@H](O)[C@@H](OC)C(=O)[C@H](C)C[C@H](C)/C=C/C=C/C=C/1C [Ridaforolimus]	10.4	0	12.4	1.18	0	0	8.38	4.31	8.14	7.53	7.76	9.58	6.61	12.7	4.1	2.99	8.23	8.46
